The results in this text go back to patent EP1196153B1, “PROCESS FOR THE IMPROVEMENT OF SPERMATOZOA FERTILIZATION ACTIVITY” (Applied Research Systems ARS Holding N.V., priority 1999, dated 2001).

Holding throughout (format): cell-based, human
In data set [1] the test system is swim-up selected spermatozoa. In words: Forward motility of H2O2 treated swim-up selected spermatozoa. The following applies: for forward motility: n=12. Here is the method:
It is well known that reactive oxygen species (ROS), which may be generated during sperm preparation for IVF, exert detrimental effects on sperm fertilization potential. In particular, among ROS, H2O2 strongly reduces motility when added to sperm samples at micromolar concentrations. Therefore, the effect of LY294002 on H2O2 treated sperm cells was evaluated. The compound was added to swim-up selected spermatozoa samples from oligoasthenospermic patients in amounts of 10 µM either alone or in combination with 200 µM of H2O2. […]

In data set [2] the test system is spermatozoa. In words: Total sperm cell recovery in swim-up selection. Particulars: n=20. On the procedure:
(§1) In the experiments the following examples are based on, standard methods of in vitro fertilization have been used. With regard to the details of these methods, reference is made to the "WHO manual" (WHO laboratory manual for the examination of human semen and sperm-cervical mucus interactions, 4th edtition, Cambridge University Press 1999). In particular, the direct swim-up method can be taken from pp. 104 to 106 of this manual.
(§2) The compound was added in a concentration of 10 µM.
Table II summarizes the total sperm cell recovery in the swim-up, which was increased by 43% as compared to the control.

For data set [3], the system named is spermatozoa. In words: Motility of spermatozoa in seminal liquid, evaluated blindly under the microscope (WHO manual). On the procedure:
as §1
Spermatozoa were prepared according to the standard procedures of IVF. Briefly, spermatozoa were prepared from 3 oligoasthenospermic subjects undergoing semen analysis for couple infertility after informed consent. 10 µM of the PI3K inhibitor LY294002 were added directly to the seminal liquid and incubated for 2 hours […] at 37°C and 5% CO2. The motility of the spermatozoa was then blindly evaluated under the microscope according to WHO manual procedures.
as §2

The test system of data set [4] is spermatozoa. The data set is described as follows: Computer aided sperm analysis (CASA) of sperm parameters. The following applies: 10 µM; 12 oligoasthenospermic subjects; vs control sample; Fig. 6. On the procedure:
These parameters were determined by computer aided sperm analysis (CASA) in sperm samples from 12 different oligoasthenospermic subjects.

The subject of data set [5] is spermatozoa obtained by the swim-up method. In words: Motility of spermatozoa after incubation and swim-up selection. An excerpt:
In the experiments the following examples are based on, standard methods of in vitro fertilization have been used. With regard to the details of these methods, reference is made to the "WHO manual" (WHO laboratory manual for the examination of human semen and sperm-cervical mucus interactions, 4th edtition, Cambridge University Press 1999). In particular, the direct swim-up method can be taken from pp. 104 to 106 of this manual. […]
Fig. 3 summarizes the results obtained in a similar experiment on samples from higher numbers of patients. The sperm cells were submitted to the swim-up selection method.
An improvement of percentage progressive motility after 2 hours of incubation of the sperm cells with LY294002 was clearly detectable, both on the rapid component (a) and on the rapid and slow component (a+b).
The experiments described above were performed on samples from oligoasthenospermic individuals. The effects on the stimulation of progressive motility by LY294002 are more pronounced the more serious the sperm pathology of patients is (oligospermia, asthenospermia, teratospermia). However, the effect of this compound could also be observed in normospermic subjects. […]

In data set [6] the test system is spermatozoa. In words: Sperm viability by eosin test and hypo-osmotic swelling. The following applies: 100 µM. On the procedure:
The effect of 100µM of LY294002 on the viability of the spermatozoa was also assessed (see insert of Fig. 3).

For data set [7], the system named is swim-up selected spermatozoa. The data set is described as follows: Forward motility of LiCl treated swim-up selected spermatozoa. The following applies: 10 µM, two hours, with or without different concentrations of LiCl; Fig. 7. From the text: LiCl is also a known inhibitor of sperm cell motility.
Where [8] appears, read: 10 µM, 2 hours of incubation, 12 individual patients, swim-up, Fig. 4.

pEC50: −log10 of the molar value.

On to `OO` [H2O2], for which the forward motility in data set [1] (200 µM H2O2 alone, oligoasthenospermic patients, control 45.4±5.0, P<0.0001 vs Control) was 26.5±4.9 (n=12) %.
As to `O=c1cc(N2CCOCC2)oc2c(-c3ccccc3)cccc12` [LY294002, 2-(4-morpholinyl)-8-phenyl-4H-1-benzopyran-4-one], the “increase of total sperm cell recovery in the swim-up vs control” value with spermatozoa [2] (10 µM) amounted to 43%. Besides, in the data set with spermatozoa [2] (LY 10 µM, control 13.3 ± 3.9, p<0.005), the “Sperm recovery in swim up” value was 19.0 ± 4.8 10^6. Also, in the data set with spermatozoa [3] (10 µM, 2 hours, 37°C, 5% CO2, 3 oligoasthenospermic subjects, Fig. 1), the “rapid motility (a) of the spermatozoa in the seminal liquid” value is recorded as “increase of rapid motility”. Further, the “percentage of forward motility (rapid and slow component a + b) in the seminal liquid” value with spermatozoa [3] (10 µM, 2 hours, 37°C, 5% CO2, 3 oligoasthenospermic subjects, Fig. 1B) is “increase”. Besides, in the data set with spermatozoa [3] (LY 10 µM added to seminal plasma, 20 oligoasthenospermic patients, control 35.7±5.1, p<0.001), the “% Sperm Forward Motility, Sperm in Seminal Plasma” value is listed as 49.8±4.7%. Besides, the “detrimental effects exerted by 200 µM H2O2 on sperm motility” value in data set [1] (10 µM LY294002 added to the incubation medium) is “completely reversed”. For the same compound, in data set [1] (10 µM LY294002 in combination with 200 µM H2O2, P<0.002 vs H2O2), the forward motility is 52.6±5.5 (n=12) %. In data set [1] (10 µM alone, oligoasthenospermic patients, control 45.4±5.0, P<0.0001 vs Control), the forward motility was 71.7±3.2 (n=12) %. Moreover, in the data set on spermatozoa [4], the “average path velocity (VAP)” value is “increased in a statistically significant manner”, the “hyperactivated sperm fraction (HA)” value is given as “increased in a statistically significant manner”, the “percentage curvilinear velocity (VCL)” value is listed as “increased in a statistically significant manner” and the “straight-line velocity (VSL)” value is “increased in a statistically significant manner”. Also, in data set [5] (setting [8]), the “percentage progressive motility, rapid and slow component (a+b)” value is reported as “improvement”; the “percentage progressive motility, rapid component (a)” value is recorded as “improvement”. Further, the “forward motility of spermatozoa” value in data set [5] (10 µM, two hours, then swim-up selection, 88 randomly selected subjects, control 53.5 ± 2.0 %) is on record as 76.3 ± 1.5%. Also, the “additional enhancement of spermatozoa motility” value in data set [5] (100 µM compared with 10 µM, swim-up, Fig. 3) is listed as “about 10%”. For the same compound, the progressive motility entry in data set [5] (100 µM, 2 hours, then swim-up selection, 7 samples, Fig. 2) was “significant increase”. The activation at 10 µM in data set [5] (Homo sapiens, Spermatozoa, 10 µM, 21 patients vs control 40 patients, swim-up, Fig. 3, read-out: increase in the progressive motility as compared to the control) was found to be 58%. The activation at 100 µM in data set [5] (Homo sapiens, Spermatozoa, 100 µM, 29 patients vs control 40 patients, swim-up, Fig. 3, read-out: increase of the motility as compared to the control) was determined as 67%. The pEC50 in data set [5] (Homo sapiens, Spermatozoa, samples from normospermic individuals, 0 to 1000 µM, swim-up, Fig. 5, read-out: EC50 (effect dose of 50%) on the rapid forward motility) was roughly 6.00. Also, the “% Sperm Forward Motility, Swim up-selected sperm” value in data set [5] (LY 10 µM added to seminal plasma, then swim-up, 20 oligoasthenospermic patients, control 54.2±4.5, p<0.001) is listed as 68.6±3.9%. In addition, the sperm viability entry with spermatozoa [6] (48 hours of incubation (not shown)) was “no effect on sperm viability”. In addition, in the data set with spermatozoa [6] (incubation for two hours, eosin test and hypo-osmotic swelling), the “vitality of the cells” value is given as “did not alter the vitality”. In data set [7], the “LiCl induced inhibition of sperm motility” value was “reversing the effect”.
